Test results from US20250199015A1, “CYCLIN-DEPENDENT KINASE 2 INHIBITORS FOR MEDICAL TREATMENT” (INCYCLIX BIO, LLC, priority 2022, published 2025).
Read-outs that look alike come from different tables or passages of the source.

What was measured:
human OATP1B3 = biological target: T1, human OATP1B3 (Homo sapiens, UniProt Q9NPD5); assay: SLC transporter inhibition in HEK293 cells; assay type: in vitro ADME
T1 construct: expressed in transfected cells; host or cells: HEK293
T1 sequence (Q9NPD5 1-702): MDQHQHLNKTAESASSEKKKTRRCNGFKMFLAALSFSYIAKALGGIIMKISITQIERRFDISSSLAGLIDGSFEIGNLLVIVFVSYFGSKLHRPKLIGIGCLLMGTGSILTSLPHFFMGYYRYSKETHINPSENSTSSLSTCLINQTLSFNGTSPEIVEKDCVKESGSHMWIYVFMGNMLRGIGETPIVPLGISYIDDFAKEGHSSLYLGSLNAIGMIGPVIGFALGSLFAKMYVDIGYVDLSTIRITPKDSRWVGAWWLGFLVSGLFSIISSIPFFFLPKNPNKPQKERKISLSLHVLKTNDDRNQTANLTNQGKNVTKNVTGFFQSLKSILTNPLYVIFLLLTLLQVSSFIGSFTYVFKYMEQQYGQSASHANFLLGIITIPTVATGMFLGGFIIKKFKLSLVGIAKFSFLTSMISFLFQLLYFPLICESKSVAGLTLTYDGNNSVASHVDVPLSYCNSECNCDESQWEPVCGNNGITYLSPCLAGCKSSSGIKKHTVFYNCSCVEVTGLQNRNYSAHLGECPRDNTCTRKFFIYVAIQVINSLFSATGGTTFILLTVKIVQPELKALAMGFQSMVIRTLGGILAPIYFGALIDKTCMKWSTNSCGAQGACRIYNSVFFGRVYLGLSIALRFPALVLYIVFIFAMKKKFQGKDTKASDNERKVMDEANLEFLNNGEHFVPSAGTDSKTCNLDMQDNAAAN

CYP2B6 transcription = assay: CYP induction (transcription); assay type: in vitro ADME; conditions: up to 3 μM, 24 hours
human OATP1B1 = biological target: T2, human OATP1B1 (Homo sapiens, UniProt Q9Y6L6); assay: SLC transporter inhibition in HEK293 cells; assay type: in vitro ADME
T2 construct: expressed in transfected cells; host or cells: HEK293
T2 sequence (Q9Y6L6 whole entry): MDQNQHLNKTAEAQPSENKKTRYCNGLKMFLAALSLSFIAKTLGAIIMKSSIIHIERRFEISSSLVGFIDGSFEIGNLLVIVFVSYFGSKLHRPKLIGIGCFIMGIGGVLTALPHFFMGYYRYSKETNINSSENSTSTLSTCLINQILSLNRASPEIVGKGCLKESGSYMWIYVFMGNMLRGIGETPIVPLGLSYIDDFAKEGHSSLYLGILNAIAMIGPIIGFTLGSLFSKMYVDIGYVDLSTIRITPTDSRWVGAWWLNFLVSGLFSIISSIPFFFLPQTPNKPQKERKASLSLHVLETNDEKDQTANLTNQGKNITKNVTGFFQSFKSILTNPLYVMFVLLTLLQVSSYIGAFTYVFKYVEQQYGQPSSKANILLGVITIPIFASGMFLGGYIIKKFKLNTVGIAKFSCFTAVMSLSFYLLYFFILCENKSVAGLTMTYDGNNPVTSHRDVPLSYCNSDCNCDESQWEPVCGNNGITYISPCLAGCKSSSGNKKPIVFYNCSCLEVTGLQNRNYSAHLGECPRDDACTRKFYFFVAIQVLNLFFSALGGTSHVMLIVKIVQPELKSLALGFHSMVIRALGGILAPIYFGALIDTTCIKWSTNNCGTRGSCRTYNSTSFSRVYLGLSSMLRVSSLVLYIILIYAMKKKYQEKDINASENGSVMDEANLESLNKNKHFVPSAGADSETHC

[1] = biological target: multidrug resistance mutation (MDR) 1 (Homo sapiens, UniProt P08183); assay: Transporter inhibition; assay type: in vitro ADME
[2] = Functional observational battery in 28-day repeat-dose toxicity study; assay type: in vivo, rats; conditions: any dose level
Excerpt: Safety pharmacology studies described more fully below included a functional observational battery (FOB) testing in a 28-day repeat-dose toxicity study in rats, electrocardiogram (ECG) evaluations in a 28-day repeat-dose toxicity study in dogs, and a single-dose respiratory safety pharmacology study in rats.

OVCAR-3 cells = assay: Cell cycle by EdU flow cytometry (dose, time, washout, tracing); assay type: cell-based, human
Method: Cells were plated at 100,000 cells/well in Corning 6 cm tissue culture treated plates. […] Cells were collected and fixed in 1% paraformaldehyde. Cells were incubated with Alexa488 azide dye as described by Thermo Scientific. Cells were then incubated with Fxcycle-violet and RNase. Cells were analyzed on a BD Celesta and data compiled using FloJo and GraphPad.
The OVCAR3 human ovarian carcinoma cell line was grown in RPMI-1640/1× Glutamax/1× Insulin/10% fetal bovine serum and was plated at 300,000 cells/well in Corning 6 cm tissue culture treated plates. […] Cells were treated for the indicated amount of time (24 hours or 48 hours), with 10 μM EdU added for the last hour of treatment. Cells were collected and fixed in 1% paraformaldehyde. Cells were incubated with Alexa 488 (A488) azide dye as described by Thermo Scientific. Cells were then incubated with FarRed dye and RNase. Cells were analyzed on a BD Celesta and data compiled using FloJo and GraphPad Prism (FIG. 13A-B).
The OVCAR3 human ovarian carcinoma cell line was grown in RPMI-1640/1× Glutamax/1× Insulin/10% fetal bovine serum and was plated at 300,000 cells/well in Corning 6 cm tissue culture treated plates. […] At 24 hours, the remaining plates were rinsed with media before un-treated media was added back. Cells were collected at the indicated times, with 10 μM EdU added for the last hour (FIG. 14A). Cells were collected and fixed in 1% paraformaldehyde. Cells were incubated with Pacific blue azide dye as described by Thermo Scientific. Cells were then incubated with FarRed dye and RNase. Cells were analyzed on a BD Celesta and data compiled using FloJo and GraphPad. […] By 18 hours, OVCAR-3 cells were in G2 or reentering G1. Cells appeared to remain somewhat synchronized over 48 hours.
The OVCAR3 human ovarian carcinoma cell line was grown in RPMI-1640/1× Glutamax/1× Insulin/10% fetal bovine serum and was plated at 300,000 cells/well in Corning 6 cm tissue culture treated plates. […] Cells were divided into two sets. The first set was treated for the indicated amount of time, with 10 μM EdU added for the last hour of treatment before being collected. The second set of cells were treated for the indicated amount of time and had EdU added for one hour before the timepoint. Then the media was aspirated, the cells washed, and re-treated with treatment media. The second set of cells was collected at 48 hours, allowing for tracing of the EdU positive cells. Cells were collected and fixed in 1% paraformaldehyde. Cells were incubated with Alexa 488 (A488) azide dye as described by Thermo Scientific. Cells were then incubated with FarRed dye and RNase. Cells were analyzed on a BD Celesta and data compiled using FloJo and GraphPad. […] Several “snap shots” of cells at various timepoints, followed by where the cells from S phase ended up at the end of 48 hours of treatment, were collected. […] It appears that the cells in S phase at after 6 hours of treatment are arresting in G1 (FIG. 15B). At 24 hours of treatment, little to no cells were in S phase so there were no cells to trace (FIG. 15C). Although the DMSO sample appears largely different at 48 hours, the distribution appears similar to the DMSO, EdU free cells at 48 hours. […] (FIG. 15D).

SMILES: NS(=O)(=O)c1ccc(Nc2ncc3cc4n(c3n2)C2(CCCCC2)C(=O)NN4)cc1 [Compound I]
- Maximum Percent inhibition (human OATP1B3; OATP1B3, HEK293 cells): 91%
- IC50 (human OATP1B3; OATP1B3, HEK293 cells, read-out: IC50): 6.22 µM
- IC50 (human OATP1B3; read-out: OATP1B3 IC50): 6.22 µM
- induction of CYP2B6 transcription (CYP2B6 transcription): no observed induction
- IC50 (human OATP1B1): 3.81 µM
- Maximum Percent inhibition (human OATP1B1; OATP1B1, HEK293 cells): 93%
- MDR1 inhibition [1]: did not inhibit
- FOB results [2]: did not affect
- cell cycle distribution with increasing concentrations (OVCAR-3 cells; 10 nM to 10 μM, 24 hours): exit the S-phase and increasingly occupy the G0-G1 phase
- G1 arrest over 48 h (OVCAR-3 cells; 100 nM): does not arrest all cells in G1
- G1 arrest over 48 h (OVCAR-3 cells; 300 nM): performs just as well
- cells arrested in G1 (OVCAR-3 cells; 300 nM, 24 hours): Approximately 80%
- cells proceeding to S phase compared with PF-07104091 (OVCAR-3 cells; 1, 6, 24 and 48 hours of treatment): permits fewer cells to proceed to S phase
- fate of cells in S phase at treatment initiation (EdU tracing) (OVCAR-3 cells; traced to 48 hours): become arrested in G1
